According to ChEMBL document CHEMBL3885881, “DrugMatrix”:

Organism: Rattus norvegicus
Test: DrugMatrix - Regimen: Daily Repeat
Assay type: toxicity, organism-based, Sprague-Dawley
Set-up: regimen Daily Repeat, gender Male, age 6-8 weeks
Conditions: in vivo, po, route oral GAVAGE, vehicle 100 % WATER; for ABSOLUTE BASOPHIL / ABSOLUTE EOSINOPHIL / ABSOLUTE LYMPHOCYTE / ABSOLUTE MONOCYTE / ABSOLUTE SEGMENTED NEUTROPHIL / BASOPHIL / EOSINOPHIL / ERYTHROCYTE COUNT / HEMATOCRIT / HEMOGLOBIN / LEUKOCYTE COUNT / LYMPHOCYTE / MEAN CORPUSCULAR HEMOGLOBIN / MEAN CORPUSCULAR HEMOGLOBIN CONCENTRATION / MEAN CORPUSCULAR VOLUME / MONOCYTE / NEUTROPHIL / NUCLEATED RED BLOOD CELLS / PLATELET COUNT: tissue Blood; for ALANINE AMINOTRANSFERASE / ALBUMIN / ALKALINE PHOSPHATASE / ASPARTATE AMINOTRANSFERASE / BLOOD UREA NITROGEN / CARBON DIOXIDE / CHLORIDE / CHOLESTEROL / CREATINE PHOSPHOKINASE / CREATININE / GLUCOSE / LACTATE DEHYDROGENASE / LIPASE / PHOSPHORUS / POTASSIUM / SODIUM / TOTAL BILIRUBIN / TOTAL PROTEIN / URIC ACID: tissue Plasma
[1] = 110 mg/kg, 72 h, dose level Low, time 3 day
[2] = 110 mg/kg, 120 h, dose level Low, time 5 day
[3] = 400 mg/kg, 72 h, dose level High, time 3 day
[4] = 400 mg/kg, 120 h, dose level High, time 5 day

## CCOC(=O)n1ccn(C)c1=S [CARBIMAZOLE]
[1]
  ABSOLUTE BASOPHIL: 0 CELLS/uL
  ABSOLUTE EOSINOPHIL: 15.67 CELLS/uL
  ABSOLUTE LYMPHOCYTE: 5022.67 CELLS/uL
  ABSOLUTE MONOCYTE: 37.33 CELLS/uL
  ABSOLUTE SEGMENTED NEUTROPHIL: 357.67 CELLS/uL
  BASOPHIL: 0%
  EOSINOPHIL: 0.33%
  ERYTHROCYTE COUNT: 5.37 x10E6/uL
  HEMATOCRIT: 33.5%
  HEMOGLOBIN: 13.37 G/DL
  LEUKOCYTE COUNT: 5.43 x10E3/uL
  LYMPHOCYTE: 92%
  MEAN CORPUSCULAR HEMOGLOBIN: 24.9 pg
  MEAN CORPUSCULAR HEMOGLOBIN CONCENTRATION: 39.9 G/DL
  MEAN CORPUSCULAR VOLUME: 62.43 fL
  MONOCYTE: 0.67%
  NEUTROPHIL: 7%
  NUCLEATED RED BLOOD CELLS: 0 /100WBC
  PLATELET COUNT: 1166.67 x10E3/uL
  ALANINE AMINOTRANSFERASE: 39.33 u/L
  ALBUMIN: 4.23 G/DL
  ALKALINE PHOSPHATASE: 314 u/L
  ASPARTATE AMINOTRANSFERASE: 65.33 u/L
  BLOOD UREA NITROGEN: 19.33 mg/dL
  CARBON DIOXIDE: 29.33 mmol/L
  CHLORIDE: 102 MEQ/L
  CHOLESTEROL: 81.67 mg/dL
  CREATINE PHOSPHOKINASE: 137 u/L
  CREATININE: 0.2 mg/dL
  GLUCOSE: 129.33 mg/dL
  LACTATE DEHYDROGENASE: 155 u/L
  LIPASE: 9.33 u/L
  PHOSPHORUS: 10.27 mg/dL
  POTASSIUM: 6.06 MEQ/L
  SODIUM: 147.63 MEQ/L
  TOTAL BILIRUBIN: 0.2 mg/dL
  TOTAL PROTEIN: 6 G/DL
  URIC ACID: 0.7 mg/dL
[2]
  ABSOLUTE BASOPHIL: 0 CELLS/uL
  ABSOLUTE EOSINOPHIL: 0 CELLS/uL
  ABSOLUTE LYMPHOCYTE: 14370.67 CELLS/uL
  ABSOLUTE MONOCYTE: 96 CELLS/uL
  ABSOLUTE SEGMENTED NEUTROPHIL: 766.67 CELLS/uL
  BASOPHIL: 0%
  EOSINOPHIL: 0%
  ERYTHROCYTE COUNT: 6.23 x10E6/uL
  HEMATOCRIT: 38.1%
  HEMOGLOBIN: 14.73 G/DL
  LEUKOCYTE COUNT: 15.23 x10E3/uL
  LYMPHOCYTE: 94%
  MEAN CORPUSCULAR HEMOGLOBIN: 23.67 pg
  MEAN CORPUSCULAR HEMOGLOBIN CONCENTRATION: 38.73 G/DL
  MEAN CORPUSCULAR VOLUME: 61.13 fL
  MONOCYTE: 0.67%
  NEUTROPHIL: 5.33%
  NUCLEATED RED BLOOD CELLS: 0 /100WBC
  PLATELET COUNT: 998 x10E3/uL
  ALANINE AMINOTRANSFERASE: 56.67 u/L
  ALBUMIN: 4.53 G/DL
  ALKALINE PHOSPHATASE: 416.67 u/L
  ASPARTATE AMINOTRANSFERASE: 76.67 u/L
  BLOOD UREA NITROGEN: 19 mg/dL
  CARBON DIOXIDE: 23.33 mmol/L
  CHLORIDE: 103 MEQ/L
  CHOLESTEROL: 83 mg/dL
  CREATINE PHOSPHOKINASE: 286 u/L
  CREATININE: 0.2 mg/dL
  GLUCOSE: 154 mg/dL
  LACTATE DEHYDROGENASE: 175.67 u/L
  LIPASE: 9.67 u/L
  PHOSPHORUS: 12.53 mg/dL
  POTASSIUM: 6.34 MEQ/L
  SODIUM: 148.13 MEQ/L
  TOTAL BILIRUBIN: 0.2 mg/dL
  TOTAL PROTEIN: 6.87 G/DL
  URIC ACID: 1.97 mg/dL
[3]
  ABSOLUTE BASOPHIL: 0 CELLS/uL
  ABSOLUTE EOSINOPHIL: 0 CELLS/uL
  ABSOLUTE LYMPHOCYTE: 9627.33 CELLS/uL
  ABSOLUTE MONOCYTE: 0 CELLS/uL
  ABSOLUTE SEGMENTED NEUTROPHIL: 872.67 CELLS/uL
  BASOPHIL: 0%
  EOSINOPHIL: 0%
  ERYTHROCYTE COUNT: 5.66 x10E6/uL
  HEMATOCRIT: 35.3%
  HEMOGLOBIN: 14.1 G/DL
  LEUKOCYTE COUNT: 10.5 x10E3/uL
  LYMPHOCYTE: 91.67%
  MEAN CORPUSCULAR HEMOGLOBIN: 24.9 pg
  MEAN CORPUSCULAR HEMOGLOBIN CONCENTRATION: 40.03 G/DL
  MEAN CORPUSCULAR VOLUME: 62.3 fL
  MONOCYTE: 0%
  NEUTROPHIL: 8.33%
  NUCLEATED RED BLOOD CELLS: 0 /100WBC
  PLATELET COUNT: 1182.33 x10E3/uL
  ALANINE AMINOTRANSFERASE: 38.33 u/L
  ALBUMIN: 4.2 G/DL
  ALKALINE PHOSPHATASE: 421 u/L
  ASPARTATE AMINOTRANSFERASE: 56 u/L
  BLOOD UREA NITROGEN: 12.67 mg/dL
  CARBON DIOXIDE: 25.67 mmol/L
  CHLORIDE: 101.67 MEQ/L
  CHOLESTEROL: 82 mg/dL
  CREATINE PHOSPHOKINASE: 338 u/L
  CREATININE: 0.17 mg/dL
  GLUCOSE: 149 mg/dL
  LACTATE DEHYDROGENASE: 171 u/L
  LIPASE: 9.67 u/L
  PHOSPHORUS: 11.57 mg/dL
  POTASSIUM: 6.88 MEQ/L
  SODIUM: 143.1 MEQ/L
  TOTAL BILIRUBIN: 0.2 mg/dL
  TOTAL PROTEIN: 5.97 G/DL
  URIC ACID: 1.73 mg/dL
[4]
  ABSOLUTE BASOPHIL: 0 CELLS/uL
  ABSOLUTE EOSINOPHIL: 0 CELLS/uL
  ABSOLUTE LYMPHOCYTE: 9558.67 CELLS/uL
  ABSOLUTE MONOCYTE: 45.33 CELLS/uL
  ABSOLUTE SEGMENTED NEUTROPHIL: 1996 CELLS/uL
  BASOPHIL: 0%
  EOSINOPHIL: 0%
  ERYTHROCYTE COUNT: 5.99 x10E6/uL
  HEMATOCRIT: 37.23%
  HEMOGLOBIN: 15.17 G/DL
  LEUKOCYTE COUNT: 11.6 x10E3/uL
  LYMPHOCYTE: 82.33%
  MEAN CORPUSCULAR HEMOGLOBIN: 25.33 pg
  MEAN CORPUSCULAR HEMOGLOBIN CONCENTRATION: 40.73 G/DL
  MEAN CORPUSCULAR VOLUME: 62.13 fL
  MONOCYTE: 0.33%
  NEUTROPHIL: 17.33%
  NUCLEATED RED BLOOD CELLS: 0 /100WBC
  PLATELET COUNT: 1416 x10E3/uL
  ALANINE AMINOTRANSFERASE: 37.33 u/L
  ALBUMIN: 3.73 G/DL
  ALKALINE PHOSPHATASE: 235 u/L
  ASPARTATE AMINOTRANSFERASE: 30.33 u/L
  BLOOD UREA NITROGEN: 19 mg/dL
  CARBON DIOXIDE: 20.67 mmol/L
  CHLORIDE: 105.33 MEQ/L
  CHOLESTEROL: 80 mg/dL
  CREATINE PHOSPHOKINASE: 198 u/L
  CREATININE: 0.16 mg/dL
  GLUCOSE: 124.67 mg/dL
  LACTATE DEHYDROGENASE: 434.67 u/L
  LIPASE: 9.33 u/L
  PHOSPHORUS: 11.57 mg/dL
  POTASSIUM: 6.35 MEQ/L
  SODIUM: 144.43 MEQ/L
  TOTAL BILIRUBIN: 0.17 mg/dL
  TOTAL PROTEIN: 5.8 G/DL
  URIC ACID: 1.57 mg/dL
